Common to all, as to format: cell-based, human
One test relates to SAMD9. The test is described as follows: SAMD9 RNA expression by qRT-PCR in HeLa cells. The following applies: for SAMD9 expression in HeLa cells: 5 μM, 24 hours, qRT-PCR vs DMSO (FIG. 1C); for SAMD9 expression fold change in HeLa cells: fold increase in RNA gene expression vs cells treated with vehicle only. As to the method: HeLa cells were cultured in DMEM 4.5 g/l glucose medium containing 10% FCS, 1% L-glutamine and 1% penicillin and streptomycin (Biological Industries) and grown at 37° C. and 5% CO2.
(§1) Of note, when cells were incubated with CaCx and ApDx (NCI, MA USA), they were grown in the appropriate medium with 0.1% FCS only.
(§2) RNA was extracted from cell cultures using an RNA extraction kit (Roche Diagnostics, Mahheim, Germany). cDNA was synthesized from 500 ng of total RNA using the Verso cDNA kit (Thermo Fisher Scientific, Waltham, MA, USA). cDNA PCR amplification was carried out using the Fast SYBR Green Master Mix in a StepOnePlus™ Real-Time PCR System (Applied Biosystems, Foster City, CA, USA) with gene-specific intron-crossing oligonucleotide pairs listed in Table 1 (below). For quantification, standard curves were obtained using serially diluted cDNA amplified in the same qRT-PCR run. The melting temperature (Tm) of the amplified products was measured to confirm the specificity of the reaction conditions. Cycling conditions were as follows: 95° C. for 10 minutes, 95° C. for 10 seconds, 62° C. for 15 seconds, and 72° C. for 25 seconds for a total of 40 cycles. Each sample was analyzed in triplicate. mRNA expression level for target gene was normalized to GAPDH. The results are based the amount of target, normalized to an endogenous reference (IACTB) and relative to a calibrator, as calculated by 2-ΔΔCT. All samples were run in triplicate. The expression levels of target genes were expressed as mRNA relative units.
The potential ability of these 31 molecules to induce SAMD9 expression in cell cultures was then scrutinized.
A general note: Real-time PCR tracks product formation cycle by cycle.

In another test the test system is SAMD9 promoter. The test is described as follows: High-throughput luciferase reporter screen in HeLa line stably expressing 585 bp SAMD9 promoter fragment. To be noted: Homo sapiens, HeLa; fold increase in promoter activity by luciferase assay vs cells treated with vehicle only; test drugs 10 μM, 24 hours; read-out: SAMD9 expression fold change in HeLa reporter assay. The method, then:
HeLa cell lines stably expressing the constructs were generated under neomycin selection. Briefly, pGL4.17 containing a SAMD9 promoter fragment spanning 585 bp upstream to the TSS and an empty pGL4.17 vector were transfected into HeLa cells. Forty eight hours after transfection, standard medium was replaced with medium containing 600 μg/ml G418 (Sigma-Aldrich), cells were kept under G418 selection and the selective medium was replaced approximately every 2-3 days. After two passages, colonies of stable cells were isolated, expanded and frozen for further use.
Test drugs were dispensed at a concentration of 10 μM by a robotic system into 96-well plates containing 9000 cells/well expressing the pGL4.17 reporter construct carrying a 585 bp SAMD9 promoter fragment operably linked to luciferase gene or the empty pGL4.17 luciferase construct (Promega cat. no. E6721). Medium was removed after 24 hours and the cells subjected to Steady-Glo luciferase lysis-substrate solution assay (Promega) as described above. Liquid handling was done with the Tecan (Tecan) Freedom 150 (Robotic & MCA liquid Handling System) and the luciferase reading was done with a robot integrated Tecan Infinite® M1000 reader.
This cell line was then used to robotically screen a total of 1496 compounds obtained from the National Cancer Institute Diversity Set III and Oncology Drugs Set III small molecule libraries.

The next test has as its system EGR1. The test is described as follows: EGR1 RNA expression by qRT-PCR in primary fibroblasts. To be noted: 5 μM over 72 hours, different time points (FIG. 3). The method, then:
Primary fibroblasts were isolated from human adult skin and were grown in High Glucose DMEM, 10% Fetal Bovine Serum, L-glutamine and Pen-Strep. Medium was changed every 2-3 days. Cells were used at passage 2-3.
as §1
as §2, with “Cycling conditions were as follows: 95° C. for 10 minutes, 95° C. for 10 seconds, 62° C. for 15 seconds, and 72° C. for 25 seconds for a total of 40 cycles.” left out, “All samples were run in triplicate.” left out

For `Cc1c2ccnc(C(N)=O)c2c(C)c2c1[nH]c1ccccc12.Cl` [Compound 335142, 6H-Pyrido[4,3-b]carbazole-1-carboxamide, 5,11-dimethyl-, monohydrochloride], in the test with SAMD9, the “SAMD9 expression in HeLa cells” value is “significantly induce” and the “SAMD9 expression fold change in HeLa cells” value is 6.44 fold. For the same compound, the fold induction at 10 µM in the test with SAMD9 promoter turned out to be 2.95. In addition, in the test on EGR1, the “EGR1 expression in primary fibroblast cells” value is given as “significantly down-regulated”.

Regarding `CCCN1c2ccc(N)cc2S(=O)(=O)c2cc(Cl)cc(Cl)c21` [Compound 629971, 7,9-dichloro-5,5-dioxo-10-propylphenothiazin-3-amine], in the test on SAMD9, the “SAMD9 expression in HeLa cells” value was “significantly induce” and the “SAMD9 expression fold change in HeLa cells” value is reported as 20.5 fold. Moreover, the fold induction at 10 µM in the test with SAMD9 promoter came out at 4.85. For the same compound, the “EGR1 expression in primary fibroblast cells” value in the test with EGR1 is recorded as “significantly down-regulated”.

Values taken from patent US12023348B2, “EGR1 targeting molecules for the treatment of inflammatory and hyperproliferative conditions” (The Medical Research, Infrastructure and Health Services …, priority 2015, dated 2024).
